This is an account of results in US9840513B2 (AbbVie S.à.r.l., priority 2015, dated 2017).

This experiment has as its target T1, F508delCFTR cell surface expression in CFBE41o-F508delCFTR-HRP cells (Homo sapiens, UniProt P13569, DEL508-508).
T1 construct: fused on or other part: Horseradish peroxidase (HRP) reporter inserted in the fourth exofacial (extracellular) loop of CFTR; expression is doxycycline-inducible
Description: Cell Surface Expression-Horse Radish Peroxidase (CSE-HRP) Assay. As to conditions: for EC50: CFBE41o-F508delCFTR-HRP cells, 18-24 hours at 33° C., 8-point curve, highest concentration 20 μM; for Maximum % activity (%): maximum at any tested concentration, normalized to on-plate positive control (3 μM). In kind it is cell-based. A digest of the protocol: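 Correctors incubated 18-24 h at 33 °C on doxycycline-induced (0.5 μg/mL, 72 h) CFBE41o-F508delCFTR-HRP cells, 3-fold series from 20 μM. After DPBS washes, luminol luminescence read; activity expressed relative to DMSO and a 3 μM positive control, EC50 fitted from triplicate plates.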

T1 sequence (P13569 with tags, fused parts or gaps DEL508-508 limits assumed): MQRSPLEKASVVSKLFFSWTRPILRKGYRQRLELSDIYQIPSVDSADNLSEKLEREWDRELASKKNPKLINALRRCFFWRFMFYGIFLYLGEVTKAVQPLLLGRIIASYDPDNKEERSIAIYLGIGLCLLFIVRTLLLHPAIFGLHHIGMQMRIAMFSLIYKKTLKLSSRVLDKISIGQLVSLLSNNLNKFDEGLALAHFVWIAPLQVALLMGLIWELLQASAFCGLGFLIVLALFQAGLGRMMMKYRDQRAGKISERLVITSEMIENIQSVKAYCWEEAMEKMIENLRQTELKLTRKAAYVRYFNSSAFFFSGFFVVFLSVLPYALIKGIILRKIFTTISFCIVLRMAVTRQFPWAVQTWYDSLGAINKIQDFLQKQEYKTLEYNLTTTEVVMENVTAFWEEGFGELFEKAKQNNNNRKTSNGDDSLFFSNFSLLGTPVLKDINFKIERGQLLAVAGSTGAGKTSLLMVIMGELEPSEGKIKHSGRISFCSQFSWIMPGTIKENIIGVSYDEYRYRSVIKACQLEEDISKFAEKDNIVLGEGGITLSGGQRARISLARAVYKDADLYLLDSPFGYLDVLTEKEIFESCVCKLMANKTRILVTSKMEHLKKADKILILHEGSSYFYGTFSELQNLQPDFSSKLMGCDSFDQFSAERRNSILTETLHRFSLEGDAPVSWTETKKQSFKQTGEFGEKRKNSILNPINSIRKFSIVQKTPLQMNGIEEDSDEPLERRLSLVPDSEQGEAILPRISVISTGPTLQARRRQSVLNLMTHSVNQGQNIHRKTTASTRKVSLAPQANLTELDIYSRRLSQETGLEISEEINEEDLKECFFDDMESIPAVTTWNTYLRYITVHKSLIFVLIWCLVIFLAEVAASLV
T1 sequence (P13569 919-1480 limits assumed, stated change not applied): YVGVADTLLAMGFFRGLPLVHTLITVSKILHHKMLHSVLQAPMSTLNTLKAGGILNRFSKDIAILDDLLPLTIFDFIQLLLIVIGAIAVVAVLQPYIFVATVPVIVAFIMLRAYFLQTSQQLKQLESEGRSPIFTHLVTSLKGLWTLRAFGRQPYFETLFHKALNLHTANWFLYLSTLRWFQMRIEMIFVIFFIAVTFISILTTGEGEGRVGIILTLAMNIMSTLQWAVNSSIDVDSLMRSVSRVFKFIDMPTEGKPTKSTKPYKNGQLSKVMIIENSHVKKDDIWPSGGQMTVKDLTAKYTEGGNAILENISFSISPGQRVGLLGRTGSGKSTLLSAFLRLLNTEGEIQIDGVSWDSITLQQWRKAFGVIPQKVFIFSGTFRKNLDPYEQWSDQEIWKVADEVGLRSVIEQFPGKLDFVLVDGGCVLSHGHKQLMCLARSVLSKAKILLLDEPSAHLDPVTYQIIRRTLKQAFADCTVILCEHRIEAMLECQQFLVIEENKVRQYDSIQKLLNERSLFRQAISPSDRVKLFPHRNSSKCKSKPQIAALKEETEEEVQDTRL

Turning to `C[C@]1(C(=O)N[C@@H]2C[C@H](C3(C(=O)N(CCO)CCO)CC3)Oc3cc(OC(F)(F)F)ccc32)COc2cc3c(cc21)OC(F)(F)O3` [Example 279, (7R)—N-[(2R,4R)-2-{1-[bis(2-hydroxyethyl)carbamoyl]cyclopropyl}-7-(trifluoromethoxy)-3,4-dihydro-2H-1-benzopyran-4-yl]-2,2-difluoro-7-methyl-6,7-dihydro-2H-furo[2,3-f][1,3]benzodioxole-7-carboxamide], the EC50 is 560 nM and the “Maximum % activity (%)” value was 119%.
In the same order, the values of `COc1ccc2c(c1)O[C@H](c1ccc(OCc3ccccc3)nn1)C[C@H]2NC(=O)[C@@]1(C)COc2cc3c(cc21)OC(F)(F)O3` (single isomer, unassigned) [Example 272] are 260 nM and 108%.
In the same order, the values of `COc1ccc2c(c1)O[C@@H](c1ccc(C(=O)NC3CCNC(=O)C3)cn1)C[C@H]2NC(=O)[C@@]1(C)COc2cc3c(cc21)OC(F)(F)O3` (stereo partly drawn) [Example 232, 6-[(2R,4R)-4-{[(7R)-2,2-difluoro-7-methyl-6,7-dihydro-2H-furo[2,3-f][1,3]benzodioxole-7-carbonyl]amino}-7-methoxy-3,4-dihydro-2H-1-benzopyran-2-yl]-N-(2-oxopiperidin-4-yl)pyridine-3-carboxamide] are 260 nM and 117%.
On the same counts, the results for `CC1(C)OC[C@@H](Cn2nc(-c3ccccc3)cc(NC(=O)C3(C)COc4cc5c(cc43)OC(F)(F)O5)c2=O)O1` (stereo partly drawn) [Example 24, N-(2-{[(4R)-2,2-dimethyl-1,3-dioxolan-4-yl]methyl}-3-oxo-6-phenyl-2,3-dihydropyridazin-4-yl)-2,2-difluoro-7-methyl-6,7-dihydro-2H-furo[2,3-f][1,3]benzodioxole-7-carboxamide] are 1180 nM and 70%.
As for `C[C@]1(C(=O)Nc2cc(-c3ccccc3)nn(C[C@H](O)[C@H](O)CO)c2=O)COc2cc3c(cc21)OC(F)(F)O3` [Example 105, (7R)-2,2-difluoro-7-methyl-N-{3-oxo-6-phenyl-2-[(2S,3R)-2,3,4-trihydroxybutyl]-2,3-dihydropyridazin-4-yl}-6,7-dihydro-2H-furo[2,3-f][1,3]benzodioxole-7-carboxamide], the EC50 is > 20000 nM and the “Maximum % activity (%)” value was found to be 5%.
On to `C[C@]1(C(=O)Nc2cccc(N3CC[C@@H](C(=O)O)C3)n2)COc2cc3c(cc21)OC(F)(F)O3` [Example 9, (3R)-1-(6-{[(7R)-2,2-difluoro-7-methyl-6,7-dihydro-2H-furo[2,3-f][1,3]benzodioxole-7-carbonyl]amino}pyridin-2-yl)pyrrolidine-3-carboxylic acid], for which the half-maximal effective concentration (EC50) was found to be 1030 nM and the “Maximum % activity (%)” value is listed as 135%.
Consider `CCOC(=O)C1([C@H]2C[C@@H](NC(=O)[C@@]3(C)COc4cc5c(cc43)OC(F)(F)O5)c3ccc(OC(F)(F)F)cc3O2)CC1` [Example 164, ethyl 1-[(2R,4R)-4-{[(7R)-2,2-difluoro-7-methyl-6,7-dihydro-2H-furo[2,3-f][1,3]benzodioxole-7-carbonyl]amino}-7-(trifluoromethoxy)-3,4-dihydro-2H-1-benzopyran-2-yl]cyclopropane-1-carboxylate], for which it took 106 nM to reach a half-maximal effect (EC50) and the “Maximum % activity (%)” value came out at 122%.
In the same order, the values of `CC1(C)OC[C@H](CN2CCC([C@H]3C[C@@H](NC(=O)[C@@]4(C)COc5cc6c(cc54)OC(F)(F)O6)c4ccc(OC(F)(F)F)cc4O3)CC2)O1` [Example 247, (7R)—N-[(2R,4R)-2-(1-{[(4S)-2,2-dimethyl-1,3-dioxolan-4-yl]methyl}piperidin-4-yl)-7-(trifluoromethoxy)-3,4-dihydro-2H-1-benzopyran-4-yl]-2,2-difluoro-7-methyl-6,7-dihydro-2H-furo[2,3-f][1,3]benzodioxole-7-carboxamide] are 1180 nM and 181%.
On the same counts, the results for `CC(C)CN1CC2CN(c3cccc(NC(=O)C4(C)COc5cc6c(cc54)OC(F)(F)O6)n3)CC2C1` (stereo not shown) [Example 108, 2,2-difluoro-7-methyl-N-{6-[5-(2-methylpropyl)hexahydropyrrolo[3,4-c]pyrrol-2(1H)-yl]pyridin-2-yl}-6,7-dihydro-2H-furo[2,3-f][1,3]benzodioxole-7-carboxamide] are 1990 nM and 89%.
On the same counts, the results for `COC(=O)c1cccc([C@H]2C[C@@H](NC(=O)C3(C)COc4cc5c(cc43)OC(F)(F)O5)c3ccc(OC)cc3O2)c1` (stereo partly drawn) [Example 10, methyl 3-{(2R,4R)-4-[(2,2-difluoro-7-methyl-6,7-dihydro-2H-furo[2,3-f][1,3]benzodioxole-7-carbonyl)amino]-7-methoxy-3,4-dihydro-2H-1-benzopyran-2-yl}benzoate] are 410 nM and 121%.
On to `C[C@]1(C(=O)N[C@@H]2C[C@H](c3ccc(C(=O)O)cc3)Oc3ccccc32)COc2cc3c(cc21)OC(F)(F)O3` [Example 23, 4-[(2R,4R)-4-{[(7R)-2,2-difluoro-7-methyl-6,7-dihydro-2H-furo[2,3-f][1,3]benzodioxole-7-carbonyl]amino}-3,4-dihydro-2H-1-benzopyran-2-yl]benzoic acid], for which the midpoint of the response, the EC50, lay at 180 nM and the “Maximum % activity (%)” value stood at 127%.
On the same counts, the results for `CCN(CCO)C(=O)c1ccc([C@H]2C[C@@H](NC(=O)[C@@]3(C)COc4cc5c(cc43)OC(F)(F)O5)c3ccc(OC)cc3O2)nc1` [Example 235, 6-[(2R,4R)-4-{[(7R)-2,2-difluoro-7-methyl-6,7-dihydro-2H-furo[2,3-f][1,3]benzodioxole-7-carbonyl]amino}-7-methoxy-3,4-dihydro-2H-1-benzopyran-2-yl]-N-ethyl-N-(2-hydroxyethyl)pyridine-3-carboxamide] are 50 nM and 114%.
In the same order, the values of `CC1(C)OC[C@H]([C@H](O)Cn2nc(-c3ccccc3)cc(NC(=O)[C@@]3(C)COc4cc5c(cc43)OC(F)(F)O5)c2=O)O1` [Example 106, (7R)—N-(2-{(2R)-2-[(4R)-2,2-dimethyl-1,3-dioxolan-4-yl]-2-hydroxyethyl}-3-oxo-6-phenyl-2,3-dihydropyridazin-4-yl)-2,2-difluoro-7-methyl-6,7-dihydro-2H-furo[2,3-f][1,3]benzodioxole-7-carboxamide] are 14100 nM and 18%.
Take `COc1ccc2c(c1)O[C@@H](CO)C[C@H]2NC(=O)[C@@]1(C)COc2cc3c(cc21)OC(F)(F)O3` [Example 277, (7R)-2,2-difluoro-N-[(2R,4R)-2-(hydroxymethyl)-7-methoxy-3,4-dihydro-2H-1-benzopyran-4-yl]-7-methyl-6,7-dihydro-2H-furo[2,3-f][1,3]benzodioxole-7-carboxamide]: the concentration for a half-maximal effect (EC50) was 660 nM and the “Maximum % activity (%)” value is reported as 110%.
On the same counts, the results for `C[C@]1(C(=O)N[C@@H]2C[C@H](C3CCN(C[C@H](O)CO)CC3)Oc3cc(OC(F)(F)F)ccc32)COc2cc3c(cc21)OC(F)(F)O3` [Example 189, (7R)—N-[(2R,4R)-2-{1-[(2S)-2,3-dihydroxypropyl]piperidin-4-yl}-7-(trifluoromethoxy)-3,4-dihydro-2H-1-benzopyran-4-yl]-2,2-difluoro-7-methyl-6,7-dihydro-2H-furo[2,3-f][1,3]benzodioxole-7-carboxamide] are 2030 nM and 186%.
On to `COc1ccc2c(c1)O[C@@H](c1ccc(C(=O)NCCO)cn1)C[C@H]2NC(=O)[C@@]1(C)COc2cc3c(cc21)OC(F)(F)O3` [Example 244, 6-[(2R,4R)-4-{[(7R)-2,2-difluoro-7-methyl-6,7-dihydro-2H-furo[2,3-f][1,3]benzodioxole-7-carbonyl]amino}-7-methoxy-3,4-dihydro-2H-1-benzopyran-2-yl]-N-(2-hydroxyethyl)pyridine-3-carboxamide], for which the 50% effective concentration (EC50) is 30 nM and the “Maximum % activity (%)” value was determined as 114%.
On the same counts, the results for `CCOC(=O)c1csc(-c2cccc(NC(=O)[C@@]3(C)COc4cc5c(cc43)OC(F)(F)O5)n2)c1` [Example 82, ethyl 5-(6-{[(7R)-2,2-difluoro-7-methyl-6,7-dihydro-2H-furo[2,3-f][1,3]benzodioxole-7-carbonyl]amino}pyridin-2-yl)thiophene-3-carboxylate] are 3160 nM and 116%.
On the same counts, the results for `CC(C)(C)c1cc2cc(NC(=O)[C@@]3(C)COc4cc5c(cc43)OC(F)(F)O5)c(F)cc2n1C[C@@H](O)CO` [Example 133, (7R)—N-{2-tert-butyl-1-[(2R)-2,3-dihydroxypropyl]-6-fluoro-1H-indol-5-yl}-2,2-difluoro-7-methyl-6,7-dihydro-2H-furo[2,3-f][1,3]benzodioxole-7-carboxamide] are 300 nM and 132%.
In the same order, the values of `C[C@@]1(C(=O)Nc2cc(C3CC3)nn(-c3ccc(C(=O)O)cc3)c2=O)COc2cc3c(cc21)OC(F)(F)O3` [Example 31, 4-[3-cyclopropyl-5-{[(7S)-2,2-difluoro-7-methyl-6,7-dihydro-2H-furo[2,3-f][1,3]benzodioxole-7-carbonyl]amino}-6-oxopyridazin-1(6H)-yl]benzoic acid] are > 20000 nM and 7%.
As to `C[C@]1(C(=O)N[C@@H]2C[C@H](C3CCC(CN)(C(=O)O)CC3)Oc3cc(OC(F)(F)F)ccc32)COc2cc3c(cc21)OC(F)(F)O3` (stereo partly drawn) [Example 289, 1-(aminomethyl)-4-[(2R,4R)-4-{[(7R)-2,2-difluoro-7-methyl-6,7-dihydro-2H-furo[2,3-f][1,3]benzodioxole-7-carbonyl]amino}-7-(trifluoromethoxy)-3,4-dihydro-2H-1-benzopyran-2-yl]cyclohexane-1-carboxylic acid], the half-maximal effective concentration (EC50) was 640 nM and the “Maximum % activity (%)” value is 140%.

The term EC50 denotes the concentration needed to bring the measured effect to its halfway point.
